Data published in PMC9486129, “An evolutionary divergent thermodynamic brake in ZAP-70 fine-tunes the kinetic proofreading in T cells” (The Journal of Biological Chemistry, 2022).
Changes are numbered by the printed parent chain. “And” between values parts separate entries of the source, which are not always exact repeats. Identical values can stand only once. Where a SMILES comes first, the peptide text is derived from it. [ ]: non-standard residue; d: D form. pY = N[C@@H](Cc1ccc(OP(=O)(O)O)cc1)C(=O)O

Legend:
tSH2R192A of ZAP-70 = target: T1, tSH2R192A of ZAP-70 (Homo sapiens, UniProt P43403); test: Isothermal titration calorimetry, ZAP-70 tSH2R192A (C-SH2 mutant)
T1 sequence (P43403 1-256 R190A): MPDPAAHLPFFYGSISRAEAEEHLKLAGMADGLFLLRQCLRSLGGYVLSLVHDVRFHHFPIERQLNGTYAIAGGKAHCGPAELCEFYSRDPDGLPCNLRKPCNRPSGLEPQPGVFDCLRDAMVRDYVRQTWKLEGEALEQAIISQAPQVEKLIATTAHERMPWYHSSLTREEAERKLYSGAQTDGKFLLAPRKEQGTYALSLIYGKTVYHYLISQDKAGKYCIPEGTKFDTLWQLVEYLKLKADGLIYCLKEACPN
Method: We probed Kd1 and Kd1∗ by fluorescence spectroscopy and Kd2 and Kd1∗ by ITC. To probe the Kd2 , we used ^tSH2R190A mutant that impairs phosphotyrosine binding to C-SH2 PBP (Figs. 1E and S1F).
ITC studies were carried out using Malvern-PEAQ_ITC at 20 °C. […] The Kd , ΔH, and ΔS were fitted into two-site sequential fit using ORIGIN as described previously ([33]). In the ITC experiments with C-SH2 domain mutant (R190A), the protein was buffer exchanged to 20 mM Hepes pH 8.2, 150 mM NaCl, and 5 mM β-mercaptoethanol.

ZAP-70 tSH2 domain = target: T2, ZAP-70 tSH2 domain (Homo sapiens, UniProt P43403); test: Stopped-flow fluorescence binding kinetics, ZAP-70 tSH2 wild type; details: 10 °C
T2 construct: ZAP-70 tSH2 WT (1–256), cloned in pSKB2 vector; made in house; host or cells: E. coli BL21(DE3)
T2 sequence (P43403 1-256): T1 sequence (P43403 1-256 R190A) with A190R
Method: We observed that the fluorescence intensity decay in two steps, fast (<200 ms) and slow (>20 s) (Fig. 3A). […] All kinetic data were first normalized against the highest intensity and then subtracted by the blank (protein only sample) (Fig. 3, A and B) and fitted to a one-site association kinetics (Table 1).
The change in fluorescence intensity was measured at λex 290 nm, λem 350 nm, and 10 °C ([71]). […] Each transient was measured over 200s (for slow kinetics) or 1s (for fast kinetics), interval with 1500 and 101 time points, respectively. For each sample, a blank dataset was recorded by measuring the change in intensity for protein only. Each data set was normalized against the maximum intensity observed for the respective sample at time 0. The normalized sample was further corrected by blank subtraction. The observed rate (kobs) was derived by fitting the change in intensity with respect to time by fitting to association kinetics equation implemented in Prism. Y=Y0+(Ymax−Y0)(1−e^[…]) where, Y0 is the intensity at time 0, Ymax is the maximum intensity, k is rate constant.

tSH2 domain of ZAP-70 = target: T3, tSH2 domain of ZAP-70 (Homo sapiens, UniProt P43403); test: Steady-state intrinsic tryptophan fluorescence titration, ZAP-70 tSH2 wild type; format: binding
T3 construct: ZAP-70 tSH2 WT (1–256), cloned in pSKB2 vector; made in house; host or cells: E. coli BL21(DE3)
T3 sequence (P43403 1-256): T1 sequence (P43403 1-256 R190A) with A190R
Method: (§1) The dissociation constant ( Kd ) was derived by fitting the normalized intensity (F0/F) versus ligand concentration using the following equation: F0/F=Bmax∗X^nH/(Kd^nH+X^nH) where F0 and F is fluorescence intensity in absence and presence of ligand, respectively. Bmax is the maximum binding, and nH is the Hill coefficient. The Hill coefficient (nH) was also determined from Hill plot ([70]).

Syk tSH2 domain = target: T4, Syk tSH2 domain (Homo sapiens, UniProt P43405); test: Steady-state intrinsic tryptophan fluorescence titration, Syk tSH2; format: binding; details: 25 °C, 0.5 μM tSH2, SD from three independent experiments
T4 construct: Syk tSH2 (7–263), cloned in pGEX6P1 vector; GST (N, cleaved yes); host or cells: E. coli BL21(DE3)
Method: as §1

Kd (tSH2R192A of ZAP-70) | kobsfast (ZAP-70 tSH2 domain; 100 nM tSH2, 30 μM peptide, 20 mM Tris pH 8.0, 150 mM NaCl, 5% glycerol, 5 mM β-mercaptoethanol, λex 290/λem 350 nm, 1 s transients, SD from three independent experiments) | Slow binding step (in words) (ZAP-70 tSH2 domain; wild-type tSH2) | Subsequent (second) binding step (tSH2 domain of ZAP-70) | Kd (Syk tSH2 domain) | Compound
9.8 ± 0.75 µM | – | – | – | – | CC(C)C[C@H](NC(=O)[C@H](CC(N)=O)NC(=O)[C@H](CC(C)C)NC(=O)[C@H](CCC(=O)O)NC(=O)[C@H](CC(N)=O)NC(=O)[C@H](Cc1ccc(OP(=O)(O)O)cc1)NC(=O)[C@H](CC(C)C)NC(=O)[C@H](CCC(N)=O)NC(=O)[C@@H](N)CC(N)=O)C(=O)NCC(=O)N[C@@H](CCCNC(=N)N)C(=O)N[C@@H](CCCNC(=N)N)C(=O)N[C@@H](C)C(=O)N[C@@H](CCC(=O)O)C(=O)N[C@@H](Cc1ccc(OP(=O)(O)O)cc1)C(=O)N[C@@H](CC(=O)O)C(=O)N[C@H](C(=O)N[C@@H](CC(C)C)C(=O)N[C@@H](CC(=O)O)C(=O)O)C(C)C [ITAM-Y2P-ζ1 E13A]
– | 28.60 ± 5.84 s⁻¹ | no detectable slow binding | no subsequent binding was observed | – | CC(C)C[C@H](NC(=O)[C@H](CC(N)=O)NC(=O)[C@H](CC(C)C)NC(=O)[C@H](CCC(=O)O)NC(=O)[C@H](CC(N)=O)NC(=O)[C@H](Cc1ccc(OP(=O)(O)O)cc1)NC(=O)[C@H](CC(C)C)NC(=O)[C@H](CCC(N)=O)NC(=O)[C@@H](N)CC(N)=O)C(=O)NCC(=O)N[C@@H](CCCNC(=N)N)C(=O)N[C@@H](CCCNC(=N)N)C(=O)N[C@@H](CCC(=O)O)C(=O)N[C@@H](CCC(=O)O)C(=O)N[C@@H](Cc1ccc(O)cc1)C(=O)N[C@@H](CC(=O)O)C(=O)N[C@H](C(=O)N[C@@H](CC(C)C)C(=O)N[C@@H](CC(=O)O)C(=O)O)C(C)C [ITAM-YP-ζ1]
12 ± 0.9 µM | – | – | – | 0.0698 µM and 0.065 to 0.07 µM | CC(C)C[C@H](NC(=O)CNC(=O)[C@@H](N)CC(=O)O)C(=O)N[C@@H](Cc1ccc(OP(=O)(O)O)cc1)C(=O)N[C@@H](CCC(N)=O)C(=O)NCC(=O)N[C@@H](CC(C)C)C(=O)N[C@@H](CO)C(=O)N[C@H](C(=O)N[C@@H](C)C(=O)N[C@H](C(=O)N[C@@H](CCCCN)C(=O)N[C@@H](CC(=O)O)C(=O)N[C@H](C(=O)N[C@@H](Cc1ccc(OP(=O)(O)O)cc1)C(=O)N[C@@H](CC(=O)O)C(=O)N[C@@H](C)C(=O)N[C@@H](CC(C)C)C(=O)N[C@@H](Cc1c[nH]cn1)C(=O)O)[C@@H](C)O)[C@@H](C)O)[C@@H](C)O [ITAM-Y2P-ζ3] (H-DGL[pY]QGLSTATKDT[pY]DALH-OH)
